What was measured:
THZ1 = compound: CN(C)C/C=C/C(=O)Nc1ccc(C(=O)Nc2cccc(Nc3ncc(Cl)c(-c4c[nH]c5ccccc45)n3)c2)cc1 [THZ1]; test: GR value, 72 h; higher = faster growth (1 = untreated, <0 = killing);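 further: breast cancer and non-malignant breast epithelial lines, nine half-log doses, viable cells counted by Hoechst and LIVE/DEAD dye imaging versus time-zero plates and DMSO controls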
Neratinib/HKI272 = compound: CCOc1cc2ncc(C#N)c(Nc3ccc(OCc4ccccn4)c(Cl)c3)c2cc1NC(=O)/C=C/CN(C)C [Neratinib/HKI272]; test: as above
BSJ-03-123 = compound: CC(=O)c1c(C)c2cnc(Nc3ccc(N4CCN(CCOCCOCCOCCNC(=O)COc5cccc6c5C(=O)N(C5CCC(=O)NC5=O)C6=O)CC4)cn3)nc2n(C2CCCC2)c1=O [BSJ-03-123]; test: as above
[1] = compound: CC(=O)c1c(C)c2cnc(Nc3ccc(N4CCNCC4)cn3)nc2n(C2CCCC2)c1=O; test: as above
[2] = compound: CCc1cnn2c(NCc3ccc[n+]([O-])c3)cc(N3CCCC[C@H]3CCO)nc12; test: as above
[3] = compound: CCN1CCN(Cc2ccc(Nc3ncc(F)c(-c4cc(F)c5nc(C)n(C(C)C)c5c4)n3)nc2)CC1; test: as above
LEE011/Ribociclib [4] = compound: T1, CN(C)C(=O)c1cc2cnc(Nc3ccc(N4CCNCC4)cn3)nc2n1C1CCCC1 [LEE011/Ribociclib]; test: as above
Flavopiridol [5] = compound: T2, CN1CC[C@H](c2c(O)cc(O)c3c(=O)cc(-c4ccccc4Cl)oc23)[C@H](O)C1 [Flavopiridol]; test: as above
[6] = compound: CC(=O)c1c(C)c2cnc(Nc3ccc(N4CCNCC4)cn3)nc2n(C2CCCC2)c1=O; test: increase in dead-cell fraction, 72 h; higher = more death;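 further: breast cancer cell lines in 384-well plates, stained with Hoechst plus LIVE/DEAD far red dye and imaged, cells above an LDR intensity threshold counted dead, Hoechst-negative corpses included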
[7] = compound: CCN1CCN(Cc2ccc(Nc3ncc(F)c(-c4cc(F)c5nc(C)n(C(C)C)c5c4)n3)nc2)CC1; test: as above
LEE011/Ribociclib [8] = compound: T1, LEE011/Ribociclib; test: as above
Flavopiridol [9] = compound: T2, Flavopiridol; test: as above

Cell Line: HCC1419
- GR value (THZ1; 0.0001 µM): 0.981 GR
- GR value (THZ1; 0.0003162 µM): 0.953 GR
- GR value (THZ1; 0.001 µM): 1.04 GR
- GR value (THZ1; 0.003162 µM): 1.03 GR
- GR value (THZ1; 0.01 µM): 1.01 GR
- GR value (THZ1; 0.03162 µM): 0.765 GR
- GR value (THZ1; 0.1 µM): 0.228 GR
- GR value (THZ1; 0.3162 µM): -0.215 GR
- GR value (THZ1; 1 µM): -0.386 GR
- GR value (Neratinib/HKI272; 0.0003162 µM): 0.769 GR
- GR value (Neratinib/HKI272; 0.001 µM): 0.611 GR
- GR value (Neratinib/HKI272; 0.003162 µM): 0.148 GR
- GR value (Neratinib/HKI272; 0.01 µM): 0.0675 GR
- GR value (Neratinib/HKI272; 0.03162 µM): -0.097 GR
- GR value (Neratinib/HKI272; 0.1 µM): -0.159 GR
- GR value (Neratinib/HKI272; 0.3162 µM): -0.26 GR
- GR value (Neratinib/HKI272; 1 µM): -0.404 GR
- GR value (Neratinib/HKI272; 3.162 µM): -0.494 GR
- GR value (BSJ-03-123; 0.001 µM): 0.753 GR
- GR value (BSJ-03-123; 0.003162 µM): 0.75 GR
- GR value (BSJ-03-123; 0.01 µM): 0.669 GR
- GR value (BSJ-03-123; 0.03162 µM): 0.644 GR
- GR value (BSJ-03-123; 0.1 µM): 0.643 GR
- GR value (BSJ-03-123; 0.3162 µM): 0.527 GR
- GR value (BSJ-03-123; 1 µM): 0.432 GR
- GR value (BSJ-03-123; 3.162 µM): 0.443 GR
- GR value (BSJ-03-123; 10 µM): 0.165 GR
- GR value ([1]; 0.0003162 µM): 1.18 GR
- GR value ([1]; 0.001 µM): 1.09 GR
- GR value ([1]; 0.003162 µM): 1.11 GR
- GR value ([1]; 0.01 µM): 0.903 GR
- GR value ([1]; 0.03162 µM): 0.828 GR
- GR value ([1]; 0.1 µM): 0.612 GR
- GR value ([1]; 0.3162 µM): 0.535 GR
- GR value ([1]; 1 µM): 0.393 GR
- GR value ([1]; 3.162 µM): 0.492 GR
- GR value ([2]; 0.0001 µM): 1.15 GR
- GR value ([2]; 0.0003162 µM): 1.16 GR
- GR value ([2]; 0.001 µM): 1.06 GR
- GR value ([2]; 0.003162 µM): 1.25 GR
- GR value ([2]; 0.01 µM): 1.15 GR
- GR value ([2]; 0.03162 µM): 0.199 GR
- GR value ([2]; 0.1 µM): -0.384 GR
- GR value ([2]; 0.3162 µM): -0.426 GR
- GR value ([2]; 1 µM): -0.471 GR
- GR value ([3]; 0.001 µM): 1.13 GR
- GR value ([3]; 0.003162 µM): 0.823 GR
- GR value ([3]; 0.01 µM): 0.714 GR
- GR value ([3]; 0.03162 µM): 0.548 GR
- GR value ([3]; 0.1 µM): 0.548 GR
- GR value ([3]; 0.3162 µM): 0.415 GR
- GR value ([3]; 1 µM): 0.487 GR
- GR value ([3]; 3.162 µM): 0.303 GR
- GR value ([3]; 10 µM): 0.2 GR
- GR value (LEE011/Ribociclib [4]; 0.001 µM): 0.953 GR
- GR value (LEE011/Ribociclib [4]; 0.003162 µM): 0.835 GR
- GR value (LEE011/Ribociclib [4]; 0.01 µM): 0.774 GR
- GR value (LEE011/Ribociclib [4]; 0.03162 µM): 0.889 GR
- GR value (LEE011/Ribociclib [4]; 0.1 µM): 0.685 GR
- GR value (LEE011/Ribociclib [4]; 0.3162 µM): 0.58 GR
- GR value (LEE011/Ribociclib [4]; 1 µM): 0.655 GR
- GR value (LEE011/Ribociclib [4]; 3.162 µM): 0.561 GR
- GR value (LEE011/Ribociclib [4]; 10 µM): 0.525 GR
- GR value (Flavopiridol [5]; 0.0001 µM): 1.06 GR
- GR value (Flavopiridol [5]; 0.0003162 µM): 0.994 GR
- GR value (Flavopiridol [5]; 0.001 µM): 0.974 GR
- GR value (Flavopiridol [5]; 0.003162 µM): 0.95 GR
- GR value (Flavopiridol [5]; 0.01 µM): 0.932 GR
- GR value (Flavopiridol [5]; 0.03162 µM): 0.894 GR
- GR value (Flavopiridol [5]; 0.1 µM): 0.658 GR
- GR value (Flavopiridol [5]; 0.3162 µM): 0.396 GR
- GR value (Flavopiridol [5]; 1 µM): -0.261 GR
- increase in dead-cell fraction ([6]; 0.0003162 µM): 0.0008
- increase in dead-cell fraction ([6]; 0.001 µM): -0.0028
- increase in dead-cell fraction ([6]; 0.003162 µM): -0.0032
- increase in dead-cell fraction ([6]; 0.01 µM): -0.0075
- increase in dead-cell fraction ([6]; 0.03162 µM): -0.0019
- increase in dead-cell fraction ([6]; 0.1 µM): -0.0096
- increase in dead-cell fraction ([6]; 0.3162 µM): -0.0094
- increase in dead-cell fraction ([6]; 1 µM): -0.0106
- increase in dead-cell fraction ([6]; 3.162 µM): -0.0074
- increase in dead-cell fraction ([7]; 0.001 µM): -0.0053
- increase in dead-cell fraction ([7]; 0.003162 µM): -0.0087
- increase in dead-cell fraction ([7]; 0.01 µM): -0.0058
- increase in dead-cell fraction ([7]; 0.03162 µM): -0.0119
- increase in dead-cell fraction ([7]; 0.1 µM): -0.0149
- increase in dead-cell fraction ([7]; 0.3162 µM): -0.0181
- increase in dead-cell fraction ([7]; 1 µM): -0.006
- increase in dead-cell fraction ([7]; 3.162 µM): -0.0031
- increase in dead-cell fraction ([7]; 10 µM): 0.0471
- increase in dead-cell fraction (LEE011/Ribociclib [8]; 0.001 µM): -0.0016
- increase in dead-cell fraction (LEE011/Ribociclib [8]; 0.003162 µM): 0.0044
- increase in dead-cell fraction (LEE011/Ribociclib [8]; 0.01 µM): 0.0015
- increase in dead-cell fraction (LEE011/Ribociclib [8]; 0.03162 µM): -0.0001
- increase in dead-cell fraction (LEE011/Ribociclib [8]; 0.1 µM): 0.0168
- increase in dead-cell fraction (LEE011/Ribociclib [8]; 0.3162 µM): 0.0148
- increase in dead-cell fraction (LEE011/Ribociclib [8]; 1 µM): 0.0084
- increase in dead-cell fraction (LEE011/Ribociclib [8]; 3.162 µM): 0.0128
- increase in dead-cell fraction (LEE011/Ribociclib [8]; 10 µM): 0.0195
- increase in dead-cell fraction (Flavopiridol [9]; 0.0001 µM): -0.0053
- increase in dead-cell fraction (Flavopiridol [9]; 0.0003162 µM): -0.0069
- increase in dead-cell fraction (Flavopiridol [9]; 0.001 µM): -0.006
- increase in dead-cell fraction (Flavopiridol [9]; 0.003162 µM): -0.0084
- increase in dead-cell fraction (Flavopiridol [9]; 0.01 µM): -0.0002
- increase in dead-cell fraction (Flavopiridol [9]; 0.03162 µM): 0.0077
- increase in dead-cell fraction (Flavopiridol [9]; 0.1 µM): 0.0061
- increase in dead-cell fraction (Flavopiridol [9]; 0.3162 µM): 0.0159
- increase in dead-cell fraction (Flavopiridol [9]; 1 µM): 0.162

Source: the supplement of paper PMC9663587
